Reference: ChEMBL document CHEMBL1909046, “DrugMatrix in vitro pharmacology data”

Assays:
[1] = molecular target: Beta-1 adrenergic receptor (Homo sapiens, UniProt P08588); test: DRUGMATRIX: Adrenergic beta1 radioligand binding (ligand: [125I] Cyanopindolol); format: cell membranes, CHO-K1, Membrane; conditions: cho-k1; Not Active = under 50% inhibition at 10 µM
[2] = DRUGMATRIX: ATPase, Na+/K+ enzyme inhibition (substrate: ATP); format: tissue-based, Sus scrofa, Heart; conditions: Not Active = under 50% inhibition at 10 µM
[3] = DRUGMATRIX: Sigma2 radioligand binding (ligand: [3H] Ifenprodil); format: cell membranes, Rattus norvegicus, Wistar, Brain, Membrane; conditions: Not Active = under 50% inhibition at 10 µM
[4] = molecular target: T1, 3-hydroxy-3-methylglutaryl-coenzyme A reductase (Homo sapiens, UniProt P04035); design: species or system Escherichia coli;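 note: enzyme inhibition assay of HMG-CoA reductase using radiolabeled [14C]HMG-CoA as substrate; in other assays of this panel Not Active means under 50% inhibition at 10 µM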
T1 sequence (P04035 whole entry): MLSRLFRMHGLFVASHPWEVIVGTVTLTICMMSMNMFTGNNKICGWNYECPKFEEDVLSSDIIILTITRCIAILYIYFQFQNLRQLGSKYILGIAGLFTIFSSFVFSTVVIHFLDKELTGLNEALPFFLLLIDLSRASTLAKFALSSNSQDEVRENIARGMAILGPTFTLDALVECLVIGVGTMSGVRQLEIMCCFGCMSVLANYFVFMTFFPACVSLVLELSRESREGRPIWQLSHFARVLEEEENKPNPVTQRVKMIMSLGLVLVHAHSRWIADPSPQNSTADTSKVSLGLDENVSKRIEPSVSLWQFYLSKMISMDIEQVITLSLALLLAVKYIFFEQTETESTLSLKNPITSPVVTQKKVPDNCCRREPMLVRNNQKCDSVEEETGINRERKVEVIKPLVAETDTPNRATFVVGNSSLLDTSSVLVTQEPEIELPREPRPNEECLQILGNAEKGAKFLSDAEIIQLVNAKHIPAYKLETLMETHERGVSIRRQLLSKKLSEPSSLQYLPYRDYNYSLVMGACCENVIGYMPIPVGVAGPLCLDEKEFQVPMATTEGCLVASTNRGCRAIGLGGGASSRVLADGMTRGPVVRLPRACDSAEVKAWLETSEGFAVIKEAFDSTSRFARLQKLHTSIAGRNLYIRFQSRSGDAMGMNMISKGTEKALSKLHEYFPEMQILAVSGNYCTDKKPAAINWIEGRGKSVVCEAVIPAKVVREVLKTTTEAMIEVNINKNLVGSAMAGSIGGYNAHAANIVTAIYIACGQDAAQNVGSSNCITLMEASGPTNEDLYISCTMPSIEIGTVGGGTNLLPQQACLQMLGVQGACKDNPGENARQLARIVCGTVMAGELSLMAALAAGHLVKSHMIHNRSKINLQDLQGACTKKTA

Insulin receptor = Insulin receptor (Rattus norvegicus, UniProt P15127); format: cell membranes, Wistar, Liver, Membrane; note: in other assays of this panel Not Active means under 50% inhibition at 10 µM
Insulin receptor, sequence (P15127 27-759 limits assumed): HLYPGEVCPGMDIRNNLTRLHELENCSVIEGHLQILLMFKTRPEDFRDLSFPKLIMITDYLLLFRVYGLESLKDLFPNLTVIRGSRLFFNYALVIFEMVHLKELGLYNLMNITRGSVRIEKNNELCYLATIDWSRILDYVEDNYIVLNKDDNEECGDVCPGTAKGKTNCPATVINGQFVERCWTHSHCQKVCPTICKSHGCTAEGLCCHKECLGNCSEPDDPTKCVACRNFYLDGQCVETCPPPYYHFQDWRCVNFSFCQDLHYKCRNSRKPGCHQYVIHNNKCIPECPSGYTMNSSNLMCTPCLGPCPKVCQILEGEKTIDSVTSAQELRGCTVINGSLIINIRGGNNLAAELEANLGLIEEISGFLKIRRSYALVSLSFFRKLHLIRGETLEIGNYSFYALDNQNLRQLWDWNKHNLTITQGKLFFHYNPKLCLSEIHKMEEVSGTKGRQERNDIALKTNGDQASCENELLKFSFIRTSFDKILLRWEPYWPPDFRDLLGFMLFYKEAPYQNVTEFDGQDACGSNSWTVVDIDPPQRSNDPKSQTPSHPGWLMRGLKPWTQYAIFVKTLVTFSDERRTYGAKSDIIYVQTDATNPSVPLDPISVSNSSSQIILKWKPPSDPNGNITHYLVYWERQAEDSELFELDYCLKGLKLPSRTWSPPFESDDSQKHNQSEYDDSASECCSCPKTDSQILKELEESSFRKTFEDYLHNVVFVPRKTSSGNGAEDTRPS
Insulin receptor, sequence (P15127 764-1383 limits assumed): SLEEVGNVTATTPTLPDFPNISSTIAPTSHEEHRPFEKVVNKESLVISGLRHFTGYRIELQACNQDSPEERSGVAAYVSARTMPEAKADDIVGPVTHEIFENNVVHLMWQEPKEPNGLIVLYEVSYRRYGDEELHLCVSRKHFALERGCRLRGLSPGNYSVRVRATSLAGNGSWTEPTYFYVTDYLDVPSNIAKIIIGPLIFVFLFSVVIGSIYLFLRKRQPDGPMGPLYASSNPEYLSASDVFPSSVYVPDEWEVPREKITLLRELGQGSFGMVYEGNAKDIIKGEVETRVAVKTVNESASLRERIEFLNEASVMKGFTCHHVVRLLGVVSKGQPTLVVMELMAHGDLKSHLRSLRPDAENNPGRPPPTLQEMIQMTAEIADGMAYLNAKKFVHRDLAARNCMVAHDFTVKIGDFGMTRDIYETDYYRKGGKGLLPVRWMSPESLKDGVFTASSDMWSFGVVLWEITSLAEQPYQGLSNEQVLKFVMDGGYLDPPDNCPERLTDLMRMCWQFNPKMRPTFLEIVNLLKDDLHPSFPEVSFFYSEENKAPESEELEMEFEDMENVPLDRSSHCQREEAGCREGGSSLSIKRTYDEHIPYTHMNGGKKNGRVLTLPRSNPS

[5] = molecular target: Receptor tyrosine-protein kinase erbB-2 (Homo sapiens, UniProt P04626); test: biochemical; format: cell-based, Insect cells; conditions: insect cells;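 note: inhibition of HER2 kinase enzyme activity, measured with Poly(Glu:Tyr) as the phosphorylation substrate; in other assays of this panel Not Active means under 50% inhibition at 10 µM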
Cytochrome P450 1A2 = molecular target: T2, Cytochrome P450 1A2 (Homo sapiens, UniProt P05177); conditions: bti-tn-5b1-4; note: in other assays of this panel Not Active means under 50% inhibition at 10 µM
T2 sequence (P05177 whole entry): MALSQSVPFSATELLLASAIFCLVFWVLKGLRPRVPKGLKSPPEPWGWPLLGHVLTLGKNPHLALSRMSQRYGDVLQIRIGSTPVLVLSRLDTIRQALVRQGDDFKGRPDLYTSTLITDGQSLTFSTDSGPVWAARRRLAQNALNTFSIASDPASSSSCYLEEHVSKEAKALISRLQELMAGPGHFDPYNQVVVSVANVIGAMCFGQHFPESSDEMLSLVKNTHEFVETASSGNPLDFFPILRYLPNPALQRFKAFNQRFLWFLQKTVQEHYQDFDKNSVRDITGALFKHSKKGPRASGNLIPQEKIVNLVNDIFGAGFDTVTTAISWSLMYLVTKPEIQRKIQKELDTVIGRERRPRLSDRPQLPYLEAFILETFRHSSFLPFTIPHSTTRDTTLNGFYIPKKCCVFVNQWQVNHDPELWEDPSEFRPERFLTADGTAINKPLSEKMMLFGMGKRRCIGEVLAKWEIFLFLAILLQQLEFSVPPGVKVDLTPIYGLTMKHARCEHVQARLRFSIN

Beta-1 adrenergic receptor, sequence (P08588 whole entry): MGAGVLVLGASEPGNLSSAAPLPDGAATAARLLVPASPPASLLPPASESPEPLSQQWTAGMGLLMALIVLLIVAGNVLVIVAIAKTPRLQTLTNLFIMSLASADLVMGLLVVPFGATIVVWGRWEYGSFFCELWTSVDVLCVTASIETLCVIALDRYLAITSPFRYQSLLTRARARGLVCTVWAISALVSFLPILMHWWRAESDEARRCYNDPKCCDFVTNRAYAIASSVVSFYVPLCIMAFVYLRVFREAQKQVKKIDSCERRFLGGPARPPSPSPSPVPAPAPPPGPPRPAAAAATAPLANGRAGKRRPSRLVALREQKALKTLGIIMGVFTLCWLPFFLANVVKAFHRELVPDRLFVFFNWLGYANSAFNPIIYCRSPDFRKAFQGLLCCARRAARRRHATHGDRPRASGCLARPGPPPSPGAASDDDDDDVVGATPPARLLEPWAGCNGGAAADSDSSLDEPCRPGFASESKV

N#CC(C#N)=Cc1ccc(O)c(O)c1 [TYRPHOSTIN 23]
Not Active: IC50 [1] | IC50 [2] | Ki [2] | IC50 [3] | Ki [3] | IC50 [4] | IC50 (Insulin receptor) | IC50 [5] | IC50 (Cytochrome P450 1A2) | Ki (Cytochrome P450 1A2)

CC[C@]1(O)C[C@H]2CN(CCc3c([nH]c4ccccc34)[C@@](C(=O)OC)(c3cc4c(cc3OC)N(C=O)[C@H]3[C@@](O)(C(=O)OC)[C@H](OC(C)=O)[C@]5(CC)C=CCN6CC[C@]43[C@@H]65)C2)C1 [VINCRISTINE]
Not Active: IC50 [1] | IC50 [2] | Ki [2] | IC50 [3] | Ki [3] | IC50 [4] | IC50 (Insulin receptor) | IC50 [5] | IC50 (Cytochrome P450 1A2) | Ki (Cytochrome P450 1A2)

CCCOc1ccccc1-c1nc2nn[nH]c2c(=O)[nH]1 [ZAPRINAST]
Not Active: IC50 [1] | IC50 [2] | Ki [2] | IC50 [3] | Ki [3] | IC50 [4] | IC50 (Insulin receptor) | IC50 [5] | IC50 (Cytochrome P450 1A2) | Ki (Cytochrome P450 1A2)

SODIUM NITROPRUSSIDE
Not Active: IC50 [1] | Ki [1] | IC50 [2] | Ki [2] | IC50 [3] | Ki [3] | IC50 [4] | Ki [4] | IC50 (Insulin receptor) | Ki (Insulin receptor) | IC50 [5] | Ki [5] | IC50 (Cytochrome P450 1A2) | Ki (Cytochrome P450 1A2)
